Assay results published in patent publication US12240862B2, “Inhibitors of peptidylarginine deiminases” (Gilead Sciences, Inc., priority 2020, dated 2025).

Target: T1, human PAD4 (Homo sapiens, UniProt Q9UM07)
T1 construct: human PAD4 (NM_012387), A2P663, was PCR amplified; His-SUMO (N, cleaved yes); made in house; host or cells: E. coli BL21(DE3)
Test: In vitro PAD4 BAEE biochemical assay
Conditions: human PAD4, BAEE substrate; 5 nM PAD4, 2 mM calcium chloride, 3 mM BAEE; geometric mean of multiple experiments
In short: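 Tag-free recombinant hPAD4 (5 nM), 2 mM CaCl2, 3 mM BAEE, 50 mM MOPS pH 7.6, 2 mM DTT; 30 min compound preincubation, 2 h reaction, all 25 °C. EDTA quench; ammonia read via o-phthalaldehyde amine coupling, 1 h.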

T1 sequence (Q9UM07 2-663): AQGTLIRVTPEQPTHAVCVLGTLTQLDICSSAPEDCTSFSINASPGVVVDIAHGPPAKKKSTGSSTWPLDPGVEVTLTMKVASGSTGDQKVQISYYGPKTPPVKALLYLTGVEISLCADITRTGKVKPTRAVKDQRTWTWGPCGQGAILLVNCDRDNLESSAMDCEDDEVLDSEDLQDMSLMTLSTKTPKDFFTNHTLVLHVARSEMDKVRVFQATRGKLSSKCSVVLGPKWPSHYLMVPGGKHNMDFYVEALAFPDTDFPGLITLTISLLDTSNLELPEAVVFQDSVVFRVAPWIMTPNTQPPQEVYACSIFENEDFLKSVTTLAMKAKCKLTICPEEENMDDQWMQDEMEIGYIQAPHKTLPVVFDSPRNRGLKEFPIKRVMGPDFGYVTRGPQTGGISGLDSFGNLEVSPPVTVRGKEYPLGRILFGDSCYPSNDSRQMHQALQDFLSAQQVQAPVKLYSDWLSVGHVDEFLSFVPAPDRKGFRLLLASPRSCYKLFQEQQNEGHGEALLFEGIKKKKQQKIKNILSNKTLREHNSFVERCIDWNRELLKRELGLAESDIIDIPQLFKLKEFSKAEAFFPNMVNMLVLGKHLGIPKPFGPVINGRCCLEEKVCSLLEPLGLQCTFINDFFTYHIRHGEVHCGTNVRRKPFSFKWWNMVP

Row | SMILES | IC50 [nM]
1 | COc1cc(C(=O)N2[C@H]3CC[C@@H]2[C@H](N)C3)cc2nc(-c3cc4ccc([C@@H](C)NC(=O)c5cn(C)nc5Cl)nc4n3CC3CC3)c(C)n12 [Example 76, ~{N}-[(1~{R})-1-[2-[7-[(1~{R},2~{R},4~{S})-2-amino-7-azabicyclo[2.2.1]heptane-7-carbonyl]-5-methoxy-3-methylimidazo [1,2-a]pyridin-2-yl]-1-(cyclopropylmethyl)pyrrolo [2,3-b]pyridin-6-yl]ethyl]-3-chloro-1-methylpyrazole-4-carboxamide] | 58
2 | COc1cc(C(=O)N2[C@H]3CC[C@@H]2[C@H](N)C3)cc2nc(-c3cc4ccc([C@@H](C)NC(=O)C5CC5)nc4n3CC3CC3)c(C)n12 [Example 78, ~{N}-[(1~{R})-1-[2-[7-[(1~{R},2~{R},4~{S})-2-amino-7-azabicyclo[2.2.1]heptane-7-carbonyl]-5-methoxy-3-methylimidazo [1,2-a]pyridin-2-yl]-1-(cyclopropylmethyl)pyrrolo [2,3-b]pyridin-6-yl]ethyl] cyclopropanecarboxamide] | 41.4
3 | COc1cc(C(=O)N2[C@H]3CC[C@@H]2[C@H](N)C3)cc2nc(-c3cc4ccc([C@@H](C)NC(=O)c5cnc(C6CC6)o5)nc4n3CC3CC3)c(C)n12 [Example 79, ~{N}-[(1~{R})-1-[2-[7-[(1~{R},2~{R},4~{S})-2-amino-7-azabicyclo[2.2.1]heptane-7-carbonyl]-5-methoxy-3-methylimidazo [1,2-a]pyridin-2-yl]-1-(cyclopropylmethyl)pyrrolo [2,3-b]pyridin-6-yl]ethyl]-2-cyclopropyl-1,3-oxazole-5-carboxamide] | 56
4 | COc1cc(C(=O)N2[C@H]3CC[C@@H]2[C@H](N)C3)cc2nc(-c3cc4ccc([C@@H](C)NC(=O)c5ccn(C(F)F)n5)nc4n3CC3CC3)c(C)n12 [Example 81, ~{N}-[(1~{R})-1-[2-[7-[(1~{R},2~{R},4~{S})-2-amino-7-azabicyclo[2.2.1]heptane-7-carbonyl]-5-methoxy-3-methylimidazo [1,2-a]pyridin-2-yl]-1-(cyclopropylmethyl)pyrrolo [2,3-b]pyridin-6-yl]ethyl]-1-(difluoromethyl)pyrazole-3-carboxamide] | 112
5 | COc1cc(C(=O)N2[C@H]3CC[C@@H]2[C@H](N)C3)cc2nc(-c3cc4ccc([C@@H](C)NC(=O)c5cnn(C(C)(C)C)c5)nc4n3CC3CC3)c(C)n12 [Example 82, ~{N}-[(1~{R})-1-[2-[7-[(1~{R},2~{R},4~{S})-2-amino-7-azabicyclo[2.2.1]heptane-7-carbonyl]-5-methoxy-3-methylimidazo [1,2-a]pyridin-2-yl]-1-(cyclopropylmethyl)pyrrolo [2,3-b]pyridin-6-yl]ethyl]-1-~{tert}-butylpyrazole-4-carboxamide] | 51.2
6 | COc1cc(C(=O)N2[C@H]3CC[C@@H]2[C@H](N)C3)cc2nc(-c3cc4ccc([C@@H](C)NC(=O)c5cnccn5)nc4n3CC3CC3)c(C)n12 [Example 83] | 47.2
7 | COc1cc(C(=O)N2[C@H]3CC[C@@H]2[C@H](N)C3)cc2nc(-c3cc4ccc([C@@H](C)NC(=O)C5(C)CC(F)(F)C5)nc4n3CC3CC3)c(C)n12 [Example 84, ~{N}-[(1~{R})-1-[2-[7-[(1~{R},2~{R},4~{S})-2-amino-7-azabicyclo[2.2.1]heptane-7-carbonyl]-5-methoxy-3-methylimidazo [1,2-a]pyridin-2-yl]-1-(cyclopropylmethyl)pyrrolo [2,3-b]pyridin-6-yl]ethyl]-3,3-difluoro-1-methylcyclobutane-1-carboxamide] | 59.7
8 | COc1cc(C(=O)N2[C@H]3CC[C@@H]2[C@H](N)C3)cc2nc(-c3cc4ccc([C@@H](C)NC(=O)C(C)(C)CO)nc4n3CC3CC3)c(C3CC3)n12 [Example 86, ~{N}-[(1~{R})-1-[2-[7-[(1~{R},2~{R},4~{S})-2-amino-7-azabicyclo[2.2.1]heptane-7-carbonyl]-3-cyclopropyl-5-methoxyimidazo [1,2-a]pyridin-2-yl]-1-(cyclopropylmethyl)pyrrolo [2,3-b]pyridin-6-yl]ethyl]-3-hydroxy-2,2-dimethylpropanamide] | 57.8
9 | COc1cc(C(=O)N2[C@H]3CC[C@@H]2[C@H](N)C3)cc2nc(-c3cc4ccc([C@@H](C)NC(=O)C5(O)CCCC5)nc4n3CC3CC3)c(C)n12 [Example 88, ~{N}-[(1~{R})-1-[2-[7-[(1~{R},2~{R},4~{S})-2-amino-7-azabicyclo[2.2.1]heptane-7-carbonyl]-5-methoxy-3-methylimidazo [1,2-a]pyridin-2-yl]-1-(cyclopropylmethyl)pyrrolo [2,3-b]pyridin-6-yl]ethyl]-1-hydroxycyclopentane-1-carboxamide] | 44.2
10 | COc1cc(C(=O)N2[C@H]3CC[C@@H]2[C@H](N)C3)cc2nc(-c3cc4ccc([C@@H](C)NC(=O)C(C)C)nc4n3CC3CC3)c(C)n12 [Example 89, ~{N}-[(1~{R})-1-[2-[7-[(1~{R},2~{R},4~{S})-2-amino-7-azabicyclo[2.2.1]heptane-7-carbonyl]-5-methoxy-3-methylimidazo [1,2-a]pyridin-2-yl]-1-(cyclopropylmethyl)pyrrolo [2,3-b]pyridin-6-yl]ethyl]-2-methylpropanamide] | 40.1
11 | COc1cc(C(=O)N2[C@H]3CC[C@@H]2[C@H](N)C3)cc2nc(-c3cc4ccc([C@@H](C)NC(=O)[C@@H](C)O)nc4n3CC3CC3)c(C)n12 [Example 91, (2~{R})-~{N}-[(1~{R})-1-[2-[7-[(1~{R},2~{R},4~{S})-2-amino-7-azabicyclo[2.2.1]heptane-7-carbonyl]-5-methoxy-3-methylimidazo [1,2-a]pyridin-2-yl]-1-(cyclopropylmethyl)pyrrolo [2,3-b]pyridin-6-yl]ethyl]-2-hydroxypropanamide] | 43

More lines, in order of falling IC50, values ahead:

Row | IC50 [nM] | SMILES
12 | 39.2 | COc1cc(C(=O)N2[C@H]3CC[C@@H]2[C@H](N)C3)cc2nc(-c3cc4ccc([C@@H](C)NC(=O)c5cnn(C)c5Cl)nc4n3CC3CC3)c(C)n12 [Example 75, ~{N}-[(1~{R})-1-[2-[7-[(1~{R},2~{R},4~{S})-2-amino-7-azabicyclo[2.2.1]heptane-7-carbonyl]-5-methoxy-3-methylimidazo [1,2-a]pyridin-2-yl]-1-(cyclopropylmethyl)pyrrolo [2,3-b]pyridin-6-yl]ethyl]-5-chloro-1-methylpyrazole-4-carboxamide]
13 | 38.7 | COc1cc(C(=O)N2[C@H]3CC[C@@H]2[C@H](N)C3)cc2nc(-c3cc4ccc([C@@H](C)NC(=O)c5ncco5)nc4n3CC3CC3)c(C)n12 [Example 73, ~{N}-[(1~{R})-1-[2-[7-[(1~{R},2~{R},4~{S})-2-amino-7-azabicyclo[2.2.1]heptane-7-carbonyl]-5-methoxy-3-methylimidazo [1,2-a]pyridin-2-yl]-1-(cyclopropylmethyl)pyrrolo [2,3-b]pyridin-6-yl]ethyl]-1,3-oxazole-2-carboxamide]
14 | 30.7 | CCn1cc(C(=O)N[C@H](C)c2ccc3cc(-c4nc5cc(C(=O)N6[C@H]7CC[C@@H]6[C@H](N)C7)cc(OC)n5c4C)n(CC4CC4)c3n2)cn1 [Example 77, ~{N}-[(1~{R})-1-[2-[7-[(1~{R},2~{R},4~{S})-2-amino-7-azabicyclo[2.2.1]heptane-7-carbonyl]-5-methoxy-3-methylimidazo [1,2-a]pyridin-2-yl]-1-(cyclopropylmethyl)pyrrolo [2,3-b]pyridin-6-yl]ethyl]-1-ethylpyrazole-4-carboxamide]
15 | 30.4 | CCCC(=O)N[C@H](C)c1ccc2cc(-c3nc4cc(C(=O)N5[C@H]6CC[C@@H]5[C@H](N)C6)cc(OC)n4c3C)n(CC3CC3)c2n1 [Example 90, ~{N}-[(1~{R})-1-[2-[7-[(1~{R},2~{R},4~{S})-2-amino-7-azabicyclo[2.2.1]heptane-7-carbonyl]-5-methoxy-3-methylimidazo [1,2-a]pyridin-2-yl]-1-(cyclopropylmethyl)pyrrolo [2,3-b]pyridin-6-yl]ethyl]butanamide]
16 | 28.7 | COc1cc(C(=O)N2[C@H]3CC[C@@H]2[C@H](N)C3)cc2nc(-c3cc4ccc([C@@H](C)NC(=O)C5CC(F)(F)C5)nc4n3CC3CC3)c(C)n12 [Example 85, ~{N}-[(1~{R})-1-[2-[7-[(1~{R},2~{R},4~{S})-2-amino-7-azabicyclo[2.2.1]heptane-7-carbonyl]-5-methoxy-3-methylimidazo [1,2-a]pyridin-2-yl]-1-(cyclopropylmethyl)pyrrolo [2,3-b]pyridin-6-yl]ethyl]-3,3-difluorocyclobutane-1-carboxamide]
17 | 28.6 | COc1cc(C(=O)N2[C@H]3CC[C@@H]2[C@H](N)C3)cc2nc(-c3cc4ccc([C@@H](C)NC(=O)c5cnc(C)o5)nc4n3CC3CC3)c(C)n12 [Example 80, ~{N}-[(1~{R})-1-[2-[7-[(1~{R},2~{R},4~{S})-2-amino-7-azabicyclo[2.2.1]heptane-7-carbonyl]-5-methoxy-3-methylimidazo [1,2-a]pyridin-2-yl]-1-(cyclopropylmethyl)pyrrolo [2,3-b]pyridin-6-yl]ethyl]-2-methyl-1,3-oxazole-5-carboxamide]
18 | 28.3 | COc1cc(C(=O)N2[C@H]3CC[C@@H]2[C@H](N)C3)cc2nc(-c3cc4ccc([C@@H](C)NC(=O)c5cnn6c5CCC6)nc4n3CC3CC3)c(C)n12 [Example 74, ~{N}-[(1~{R})-1-[2-[7-[(1~{R},2~{R},4~{S})-2-amino-7-azabicyclo[2.2.1]heptane-7-carbonyl]-5-methoxy-3-methylimidazo [1,2-a]pyridin-2-yl]-1-(cyclopropylmethyl)pyrrolo [2,3-b]pyridin-6-yl]ethyl]-5,6-dihydro-4~{H}-pyrrolo[1,2-b] pyrazole-3-carboxamide]
